Measurements taken from patent US9241487B2, “Pyrimidine derivatives and use thereof as pesticides” (BAYER INTELLECTUAL PROPERTY GMBH, priority 2010, dated 2016).

Key:
Format in all cases: in vivo
Septoria tritici = Septoria tritici test (wheat)/protective; settings: Zymoseptoria tritici, 504 h, protective spray, evaluation 21 days after inoculation, read-out: Efficacy (%)
Description: Septoria tritici Test (Wheat)/Protective
(§1) Solvent: 49 parts by weight of N,N-dimethylacetamide
(§2) Emulsifier: 1 part by weight of alkylaryl polyglycol ether
To produce a suitable preparation of active compound, 1 part by weight of active compound is mixed with the stated amounts of solvent and emulsifier, and the concentrate is diluted with water to the desired concentration. To test for protective activity, young plants are sprayed with the preparation of active compound at the stated application rate. After the spray coating has dried on, the plants are sprayed with a spore suspension of Septoria tritici. The plants remain in an incubation cabin at 20° C. and 100% relative atmospheric humidity for 48 hours. Thereafter, the plants are placed under a translucent hood at 15° C. and 100% relative air humidity for a further 60 hours. The plants are placed in a greenhouse at a temperature of about 15° C. and a relative atmospheric humidity of about 80%. Evaluation follows 21 days after the inoculation. 0% means an efficacy which corresponds to that of the control, whereas an efficacy of 100% means that no infection is observed.
In this test, the following compounds according to the invention show, at an active compound concentration of 500 ppm, an efficacy of 70% or more: […]

Pyrenophora teres = Pyrenophora teres test (barley)/protective; settings: protective spray, evaluation 7-9 days after inoculation
Description: Pyrenophora teres Test (Barley)/Protective
as §1, §2
(§3) To produce a suitable preparation of active compound, 1 part by weight of active compound is mixed with the stated amounts of solvent and emulsifier, and the concentrate is diluted with water to the desired concentration. To test for protective activity, young plants are sprayed with the preparation of active compound at the stated application rate. 1 day after this treatment, the plants are inoculated with an aqueous spore suspension of Pyrenophora teres. The plants remain in an incubation cabin at 20° C. and 100% relative atmospheric humidity for 48 hours. The plants are placed in a greenhouse at a temperature of about 20° C. and a relative atmospheric humidity of about 80%. Evaluation is carried out 7-9 days after the inoculation. 0% means an efficacy which corresponds to that of the control, whereas an efficacy of 100% means that no infection is observed.

Phakopsora pachyrhizi = Phakopsora pachyrhizi test (soya bean)/protective; settings: protective spray, 100 ppm, evaluation 11 days after inoculation
Description: Phakopsora pachyrhizi Test (Soya Bean)/Protective
Solvent: 28.5 parts by weight of acetone
Emulsifier: 1.5 part by weight of polyoxyethylene alkylphenyl ether
as §3, with “spraying,” for “this treatment,”, “the soya bean rust pathogen (Phakopsora pachyrhizi).” for “Pyrenophora teres. The plants remain in an incubation cabin at 20° C. and 100% relative atmospheric humidity for 48 hours.”, “follows 11” for “is carried out 7-9”
In this test, the following compounds according to the invention show, at an active compound concentration of 100 ppm, an efficacy of 80% or more: […]

Structure (SMILES)	pest or weed control at 500 ppm (Septoria tritici)	Efficacy (%) (Pyrenophora teres; 100 ppm)	Efficacy (%) (Pyrenophora teres; 500 ppm)	Efficacy (%) (Phakopsora pachyrhizi)
CC(C)C(O)(COc1ccc(OC(F)(F)F)cc1)c1cncnc1 (centres unmarked) [Compound 2]	93%	0%	0%	–
CC(C)(C)C(O)(COc1ccc(OC(F)(F)F)cc1)c1cncnc1 (centres unmarked) [Compound 12]	100%	60%	95%	98%
CC(C)(C)C(O)(COc1ccc(SC(F)(F)F)cc1)c1cncnc1 (centres unmarked) [Compound 17]	100%	–	–	97%
CC1(C(O)(COc2ccc(OC(F)(F)F)cc2)c2cncnc2)CC1 (centres unmarked) [Compound 18]	100%	–	–	98%
